From US6159940A, “Method for modulating hemopoiesis” (Immunotech Developments Inc., priority 1999, dated 2000)

How the values were obtained:
[1] = test system: karyocytes in femoral bone marrow; assay: Bone marrow regeneration in irradiated mice (4 Gy), scheme 2; assay type: in vivo
Method: Irradiated mice (4 Gy) received intramuscular injections of the peptide in the dose of 10 μg/kg according to 2 schemes.
b) According to scheme 2, the peptide injections were made starting from the 3rd day after the irradiation, at the same time of maximum depletion of the pool of mature nucleated cells and the bone marrow. The groups of mice were formed in the same way as in the previous scheme. […] Tables 9 and 10 present the data on karyocyte and lymphocyte counts in blood (per 1 mm^3) of mice treated according to scheme 2.
The data in Table 11 reflect the process of bone marrow regeneration in control and test irradiated (4 Gy) mice treated with peptide according to scheme 2. The regeneration was equally intensive in all animal groups till the 11th day, from day 14 to day 18 the nucleated cells counts were considerably higher in the bone marrow of test mice.

[2] = Chronic toxicity: peritheric blood and internals, 30 days, guinea pigs; assay type: in vivo; conditions: once daily for 30 days
Method: II.1 The H-Ile-Glu-Trp-OH effect on the composition and properties of the peritheric blood, the morphological state of the internals.
The drug was injected once daily for 30 days.
The test animals were 20 rabbits and 40 guinea pigs.

[3] = Local irritating effect, rabbits; assay type: in vivo
Source text: The local irritating effect of H-Ile-Glu-Trp-OH was studied in 20 guinea pigs and 5 rabbits.

[4] = Toxicity study: single 0.15 g/kg or 10 μg/kg for 5 days, cellular systems on day 14; assay type: in vivo, male mice
Method: To determine the peptide toxicity, male mice received single injections of the peptide in the dose of 0.15 g per kg body weight, which was 15,000 times as large as the therapeutic dose with favourable effect in post-irradiation regeneration of hemopoietic progenitors. The second group of mice received daily peptide injections in the dose of 10 μg/kg (the therapeutical dose) for 5 days. […] On the 14-th day after the peptide injection 10 mice from each group were killed to determine the condition of their cellular systems. Nucleated cells were counted in spleen and thymus (per mg of organ weight), bone marrow, blood (per ml). Erythrocyte count and hemoglobin level were determined.

Acute toxicity in mice = assay type: in vivo
Method: An acute toxicity study of the peptide was carried out in compliance with methodical recommendations of the Pharmacological Committee of the Russian Federation (RF), "Requirements to Preclinical Study of General Toxic Action of New Pharmacological Substances", M., 1985.
To establish the safety of use of the peptides, toxicity tests were performed. Toxicity tests where performed in accordance Pharmacological Committee Russian Federation (RF) "guidelines for the pre-clinical study of general toxic activity of new pharmacological compounds". M., 1985.
Acute toxicity was studied in 120 mice (60 males, 60 females). Ld50 was not reached with the dose 10000 times as high as the therapeutic one. The preferred therapeutic dose is 0.001-0.1 mg/kg.

Thymoma EL-4 cells = Thymoma EL-4 cells incubated with peptide and oxyurea, transplanted to mice: tumor growth and survival; assay type: in vivo, C57B1 mice
Method: The Thymoma EL-4 cells were extracted from the abdomen cavity of C57B1 mice at the 7th day after transplantation. The suspension was washed by centrifugation in the medium RPMI. Then the cells were resuspended in the growth medium (RPMI+10% of embryo serum+0.1% penicillin/streptomycin) and were split in culture flasks 5 ml each ([…] per flask). 2 mg of the preparation were added (20 μl) to each probe. After 18 hours of incubation (37 degrees Celsius CO2), OU was added to the half of probes (1 mg per 5 ml). Incubation was done for 1 more hour in the same conditions and then cells were washed out by centrifugation in the medium RPMI. The precipitated cells were resuspended in calculation 1 ml per 0.2 ml of RPMI medium and then transplanted to the mice C57B1 under the back skin.
The taking of the measurements of the size of the tumor was started after the knot became visible. The tumor was measured every day until it was impossible to measure. The survival ability of the mice was examined during 60 days after transplantation. Mice that survived after this period were considered to be cured. Each experimental group consisted of 6 animals.

[5] = 10 mcg/kg × 5 injections, day 14
[6] = 60 days after transplantation of treated EL-4 cells

Substance: H-Ile-Glu-Trp-OH
- Karyocyte Count in Femoral Bone Marrow ([1]; scheme 2, 1 Time, Day 7): 16.4 ± 0.3 × 10^6
- Karyocyte Count in Femoral Bone Marrow ([1]; scheme 2, 1 Time, Day 11): 17.9 ± 1.8 × 10^6
- Karyocyte Count in Femoral Bone Marrow ([1]; scheme 2, 1 Time, Day 14): 18.7 ± 1.1 × 10^6
- Karyocyte Count in Femoral Bone Marrow ([1]; scheme 2, 1 Time, Day 18): 18.0 ± 0.4 × 10^6
- Karyocyte Count in Femoral Bone Marrow ([1]; scheme 2, 1 Time, Day 21): 22.4 ± 2.2 × 10^6
- Karyocyte Count in Femoral Bone Marrow ([1]; scheme 2, 2 Times, Day 7): 14.9 ± 1.7 × 10^6
- Karyocyte Count in Femoral Bone Marrow ([1]; scheme 2, 2 Times, Day 11): 18.6 ± 2.3 × 10^6
- Karyocyte Count in Femoral Bone Marrow ([1]; scheme 2, 2 Times, Day 14): 14.1 ± 1.7 × 10^6
- Karyocyte Count in Femoral Bone Marrow ([1]; scheme 2, 2 Times, Day 18): 17.2 ± 1.0 × 10^6
- Karyocyte Count in Femoral Bone Marrow ([1]; scheme 2, 2 Times, Day 21): 18.9 ± 0.6 × 10^6
- Karyocyte Count in Femoral Bone Marrow ([1]; scheme 2, 3 Times, Day 7): 12.25 ± 1.3 × 10^6
- Karyocyte Count in Femoral Bone Marrow ([1]; scheme 2, 3 Times, Day 11): 18.5 ± 2.9 × 10^6
- Karyocyte Count in Femoral Bone Marrow ([1]; scheme 2, 3 Times, Day 14): 16.9 ± 0.8 × 10^6
- Karyocyte Count in Femoral Bone Marrow ([1]; scheme 2, 3 Times, Day 18): 16.9 ± 0.8 × 10^6
- Karyocyte Count in Femoral Bone Marrow ([1]; scheme 2, 3 Times, Day 21): 19.5 ± 1.6 × 10^6
- Karyocyte Count in Femoral Bone Marrow ([1]; scheme 2, 4 Times, Day 11): 20.3 ± 1.3 × 10^6
- Karyocyte Count in Femoral Bone Marrow ([1]; scheme 2, 4 Times, Day 14): 18.9 ± 0.2 × 10^6
- Karyocyte Count in Femoral Bone Marrow ([1]; scheme 2, 4 Times, Day 18): 17.7 ± 1.2 × 10^6
- Karyocyte Count in Femoral Bone Marrow ([1]; scheme 2, 4 Times, Day 21): 20.0 ± 1.8 × 10^6
- pathologic changes in the body or peritheric blood [2]: did not cause any pathologic changes
- local irritating effect [3]: no local irritating effect
- Survival for 30 days ([4]; 10 μg/kg daily for 5 days): Not an animal died
- Karyocyte Count, Spleen ([4]; 0.15 g/kg, day 14): 2280 ± 30 10^3 /mg
- Karyocyte Count, Thymus ([4]; 0.15 g/kg, day 14): 3030 ± 250 10^3 /mg
- erythrocyte ([4]; 0.15 g/kg, day 14): 8100 ± 600 10^3
- hemoglobin ([4]; 0.15 g/kg, day 14): 10.8 ± 0.7 g/dL
- karyocyte count bone marrow ([4]; 0.15 g/kg, day 14): 2.39 ± 0.25 × 10^7 /femur
- karyocytes % ([4]; 0.15 g/kg, day 14): 62.0 ± 3.4%
- karyocytes (blood) ([4]; 0.15 g/kg, day 14): 5.4 ± 0.7 10^3
- karyocytes absolute ([4]; 0.15 g/kg, day 14): 3348
- weight ([4]; 0.15 g/kg, day 14): 21-22.0
- Karyocyte Count, Spleen [4, 5]: 1760 ± 100 10^3 /mg
- Karyocyte Count, Thymus [4, 5]: 2780 ± 340 10^3 /mg
- erythrocyte [4, 5]: 8400 ± 200 10^3
- hemoglobin [4, 5]: 11.5 ± 0.2 g/dL
- karyocyte count bone marrow [4, 5]: 1.94 ± 0.2 × 10^7 /femur
- karyocytes % [4, 5]: 58.6 ± 3.6%
- karyocytes (blood) [4, 5]: 10.1 ± 0.8 10^3
- weight [4, 5]: 21-22.5
- LD50 ([4]; not found): > 15,000 as large as the therapeutical one
- growth of average weight by the end of the study ([4]; same as in control): 2 g
- Survival for 30 days ([4]; single injection 0.15 g per kg): Not an animal died
- Ld50 (Acute toxicity in mice; 120 mice): > 10000 times as high as the therapeutic one
- acute toxic effect (Acute toxicity in mice; intraperitoneal injection of a 10,000-fold dose): did not cause an acute toxic effect
- % of Survival (Thymoma EL-4 cells; [6]): 16.6%
- Number of Survived Mice From 6 (Thymoma EL-4 cells; [6]): 1/6
- extension of lifetime in combination with cytostatics (Thymoma EL-4 cells; mice with Thymoma EL-4): 15 days
- increase in lifetime versus control (Thymoma EL-4 cells; mice with Thymoma EL-4): 4 days
- tumor growth (Thymoma EL-4 cells; thymoma cells incubated with H-Ile-Glu-Trp-OH, then OU): depression of the tumor growth on the 12th day is most definite
